“Also recorded” adds a separate entry of the source. Like-named read-outs stand apart in the source and are kept apart here.
Legend:
[1] = tested on: VimPro-Fluc-MDA-MB-231 cells; type: cell-based; conditions: VimPro-Fluc-MDA-MB-231 monolayer, 72 h
Procedure: (§1) A 2D-screen was conducted with small molecule antitumor agents, growth factors or antibodies (FIG. 2B). All cells were cultured in 100 mm tissue culture dishes in RPMI-1640 supplemented with 10% FBS and maintained in a 5% CO2 incubator at 37° C. VimPro-Fluc-MDA-MB-231 and VimPro-Fluc-PMC42-LA were seeded at 5,000 cells/well into 96-well white plates and incubated overnight for 16 h. VimPro-Fluc-PMC42-LA and VimPro-Fluc-MDA-MB-231 cells were treated for 72 h. The treatment medium was replaced with 50 μL fresh medium, then 50 μL of One-Glo Luciferase reagent and incubated at room temperature for 10 min. Luminescence was recorded with an integration time of 1 sec/well using a luminescence microplate reader.

[2] = tested on: VimPro-Fluc-PMC42-LA cells; type: cell-based; conditions: VimPro-Fluc-PMC42-LA monolayer, 10 ng/mL EGF, 72 h
Procedure: as §1

[3] = tested on: VimPro-Fluc-MDA-MB-231 spheroids; experiment: Live 3D-spheroid vimentin expression assay (VimPro-Fluc, DMNPE-caged luciferin); type: cell-based; conditions: read-out: IC50 vimentin expression, dose response
Procedure: Uniform single-spheroids of MDA-MB-231 and VimPro-Fluc-MDA-MB-231 breast carcinoma cells were cultured in 96-well flat bottom plates coated with 50 μL of a 1.5% agarose (weight/volume) solution in serum free RPMI-1640 (no phenol red) medium (freshly autoclaved at 121° C. for 15 min). During the coating process the agarose/RPMI-1640 solution was maintained at >60° C. followed by cooling and setting at room temperature for 40 min. Cells were plated at a density of 10,000 cells/well in 50 μL of RPMI-1640 (10% FBS, no phenol red) and centrifuged at 1,000 rpm for 15 min to induce cell aggregation. […]
VimPro-Fluc-MDA-MB-231 spheroids were cultured in 96-well optical bottom white plates and treated as described above. On day 8, after 72 h treatment with control EMT modulators, live spheroid vimentin expression was measured by adding 10 μL (final 12.5 μM) of DMNPE-caged luciferin to each well and incubating at 37° C., 5% CO2 for 2 h.
Uniform single spheroids were cultured in 96-well optical bottom white plates as described above and treated on day 5. […] After 72 h, vimentin expression was measured by adding 10 μL (final 12.5 μM) of DMNPE-caged luciferin to each well and incubated for 2 h (37° C., 5% CO2). Luminescence was recorded with an integration time of 1 second/well (FIG. 9A-D).

MDA-MB-231 spheroids [4] = experiment: Modified Boyden chamber cell invasion assay of cells dissociated from spheroids; type: cell-based; conditions: control modulators, 72 h treatment, 24 h invasion, FIG. 6
Procedure: Spheroids were treated as in the primary assay. Following treatment, each sample group was disassociated into single cell suspensions and seeded into invasion chambers followed by a 24 h incubation period. VimPro-Fluc-MDA-MB-231 spheroids were treated with control EMT modulators as described using 15 spheroids per sample group. The spheroids for each sample group were pooled into 1.5 ml, micro tubes and collected by centrifugation at 10,000 rpm for 10 min at room temperature.
Each sample group was then treated with 200 μL of spheroid dissociation solution (0.25% trypsin-EDTA) and incubated at 37° C. for 30 min. Single cell suspensions of each group in RPMI-1640 medium containing 0.1% BSA were seeded at 35,000 cells/chamber (50 μL) into the top chambers of a 96-well invasion plate (BD Biosciences; Bedford, Mass.) previously coated with 50 μL of […]™ (40 μg/mL protein in RPMI-1640 medium). Chemoattractant (10%
FBS in RPMI-1640 medium, 150 μL) was added to each bottom chamber and the plate was incubated (37° C., 5% CO2) for 24 h. Following incubation the insert was removed and the medium aspirated from both top and bottom chambers. […] Each side of the membrane insert was washed 2× by adding 200 μL PBS-CMF (Ca/Mg free) to the bottom chamber, replacing the insert and adding 50 μL PBS-CMF to the top chamber. The PBS-CMF was removed and the invading cells were fixed with 200 μL of 4% paraformaldahyde in the bottom chambers at 37° C. for 15 min. The insert was washed 2× with PBS-CMF as described above. The invading cells were subsequently stained with 200 μL of DAPI (3 μg/mL) in PBS-CMF for 30 min at room temperature and washed 4×, as described above, in 15 min intervals. Invading cells were quantified using five random fields per filter insert in triplicate at 20× magnification using a fluorescent microscope equipped with metamorph image analysis and quantification software (Molecular Devices; Downingtown, Pa.).

MDA-MB-231 cells = tested on: MDA-MB-231 cells
Procedure: (§2) Cell lines were cultured as monolayers in 96-well microplates and treated with U0126, the specific inhibitor of mitogen-activated protein kinase kinase (MEK1).

[5] = tested on: EGF-treated PMC42-LA cells
Procedure: as §2

[6] = tested on: vimentin in MDA-MB-231 spheroids; experiment: Immunofluorescent vimentin staining of whole and sectioned spheroids (confocal); type: cell-based; conditions: whole spheroid, outer surface / peripheral layer; U0126 10 μM 72 h
Procedure: Confocal 3D imaging emphasizes a surface edge of MDA-MB-231 spheroids untreated or treated with (10 μM) U0126 for 72 hours.
Spheroids were fixed with 50 μL of 3.7% formaldehyde for 10 min at room temperature. They were then washed once with PBS and 50 μL of 0.2% Triton X-100 in PBS (v/v) were added for 10 min at room temperature to permeate cells. Next they were blocked with 50 μL of cell culture medium (10% FBS) for 1 h at room temperature. Blocking medium was then aspirated and sphroids were treated with mouse anti-vimentin at 1:100 in TBST containing 20% cell culture medium (v/v) with shaking at 4° C. overnight. They were then washed (3×TBST) and stained with FITC green fluorescent conjugated goat anti-mouse secondary antibody at 1:1,000 and with DAPI (4′,6-diamidino-2-phenylindole) at 1:1,000 in TBST containing 20% cell culture medium (v/v) for 1 h at room temperature and washed with TBST 4×. After fixing with formaldehyde, some spheroids were sectioned using a Leica CM 1950 cryostat (Leica Microsystems; Germany) with thickness of 10 μm. Spheroid sections were washed with PBS and stained as described above. Spheroid sections on slides were covered with mounting medium and cover slips. Imaging of whole spheroids was done with an UltraVIEW® VoX 3D confocal microscope (Perkin Elmer) using a 20× objective. Spheroid sections were imaged using a Nikon D-Eclipse Cl confocal microscope system (Nikon Instruments Inc; Melville, N.Y.).
Vimentin expression in VimPro-Fluc-MDA-MB-231 spheroids was further assessed by immunofluorescent staining of whole spheroids treated with U0126.

MDA-MB-231 spheroids [7] = experiment: Spheroid viability, APH assay multiplexed after vimentin readout; type: cell-based; conditions: for spheroid death (control of APH assay): 10% Triton X-100, 2 h prior to APH analysis
Procedure: Cell Viability To support the primary assay hit validation, two cell viability assays have been developed: the acid phosphatase assay (APH) and the cell-titer-glow (Promega®). Both assays give robust reproducible results in both 2D and 3D cell culture. We can also multiplex these assays using live VimPro-Fluc stable 3D-spheroids (FIG. 5). On day 8, vimentin expression was measured (luminescence as RLU/s), using a live cell permeable luciferin reagent, followed by multiplexing with the APH assay (OD405). […] Thus, downregulation of VimPro-Fluc activity by the control modulators is not due to spheroid death.
Uniform single spheroids were cultured in 96-well optical bottom white plates as described above and treated on day 5. To avoid edge effects the outer wells were unused and filled with sterilized water. 15 μL of controls and marine natural products were added to each well at final concentrations described above. After 72 h, vimentin expression was measured by adding 10 μL (final 12.5 μM) of DMNPE-caged luciferin to each well and incubated for 2 h (37° C., 5% CO2). Luminescence was recorded with an integration time of 1 second/well (FIG. 9A-D). Directly following the primary assay measuring vimentin expression, spheroid viability was multiplexed using the APH assay. Hits were confirmed using the cell invasion assay (FIG. 9E).

COc1cc2ncnc(Nc3cccc(Cl)c3)c2cc1OC [AG1478]
vimentin expression [1]: no statistically significant effect | EGF-induced EMT (vimentin upregulation) [2]: significantly inhibited

CNC(=O)c1ccccc1Sc1ccc2c(/C=C/c3ccccn3)n[nH]c2c1 [Axitinib]
IC50 ([3]; VimPro-Fluc spheroids, FIG. 8B): 0.25 µM

C[C@@H](Oc1cc(-c2cnn(C3CCNCC3)c2)cnc1N)c1c(Cl)ccc(F)c1Cl [PF2341066, PF-2341066]
inhibition of invasive potential vs untreated spheroids (MDA-MB-231 spheroids [4]): about 90% | invasive potential of MDA-MB-231 spheroids (in words) (MDA-MB-231 spheroids [4]): significant inhibition

CO[C@@H]1[C@H](N(C)C(=O)c2ccccc2)C[C@H]2O[C@]1(C)n1c3ccccc3c3c4c(c5c6ccccc6n2c5c31)C(=O)NC4 [PKC412]
invasive potential of MDA-MB-231 spheroids (in words) (MDA-MB-231 spheroids [4]): significant inhibition

N#CC(=C(/N)Sc1ccccc1N)/C(C#N)=C(\N)Sc1ccccc1N [U0126]
vimentin expression [1]: significant downregulation of vimentin expression | EGF-induced EMT (vimentin upregulation) [2]: significantly inhibited | IC50 [3]: 2.5 µM | invasive potential (MDA-MB-231 cells): significantly diminished | invasive potential [5]: significantly diminished | inhibition of invasive potential vs untreated spheroids (MDA-MB-231 spheroids [4]): about 90% | invasive potential of MDA-MB-231 spheroids (in words) (MDA-MB-231 spheroids [4]): significant inhibition | vimentin protein expression by immunofluorescence [6]: overall vimentin downregulation; also recorded: Significant downregulation of vimentin protein expression; also recorded: repression of Vimentin expression

COc1c(OC)c2c(c(CCN(C)C)c1SC)Sc1c(CCN(C)C)c(SC)c(OC)c(OC)c1S2 [lissoclinotoxin E]
spheroid viability vs untreated spheroids on day 5 (MDA-MB-231 spheroids [7]; marine natural product hits, 10 μM, 72 h, APH assay): exception; also recorded: statistically significant decrease in spheroid viability

Triton X-100
spheroid death (control of APH assay) (MDA-MB-231 spheroids [7]): significantly induces spheroid death | spheroid death (control of APH assay) (MDA-MB-231 spheroids [7]; listed as Triton-X-100): significantly induced spheroid death

From patent US20110143960A1, “3D-MODELS FOR HIGH-THROUGHPUT SCREENING DRUG DISCOVERY AND DEVELOPMENT” (priority 2009, published 2011)
